Data: paper PMC7650666, “Computational and In Vitro Investigation of (-)-Epicatechin and Proanthocyanidin B2 as Inhibitors of Human Matrix Metalloproteinase 1” (Biomolecules, 2020)

What was measured:
[1] = target: T1, Matrix metalloproteinase 1 (MMP-1) (Homo sapiens, UniProt P03956); assay: casein zymography of protein from fibroblast culture medium preincubated with compound (reference inhibitor); type: cell-based; details: read-out: % inhibition at 1000 μg/mL
T1 construct: gene MMP1; MMP-1 secreted by human fibroblast (Detroit551) cells, 54 kDa band
T1 sequence (P03956 20-469): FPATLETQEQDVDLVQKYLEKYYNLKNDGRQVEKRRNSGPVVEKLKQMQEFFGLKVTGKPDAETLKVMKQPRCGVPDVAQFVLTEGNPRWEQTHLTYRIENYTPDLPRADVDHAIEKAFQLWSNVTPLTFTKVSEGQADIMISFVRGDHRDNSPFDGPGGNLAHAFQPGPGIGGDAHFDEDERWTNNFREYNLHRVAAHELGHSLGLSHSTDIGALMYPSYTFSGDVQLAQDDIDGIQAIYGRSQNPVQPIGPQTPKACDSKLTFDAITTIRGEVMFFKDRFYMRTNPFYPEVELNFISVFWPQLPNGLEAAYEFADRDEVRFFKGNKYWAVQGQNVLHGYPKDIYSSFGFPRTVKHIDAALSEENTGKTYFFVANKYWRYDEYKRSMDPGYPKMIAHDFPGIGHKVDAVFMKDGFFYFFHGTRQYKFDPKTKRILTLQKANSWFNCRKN

[2] = target: T1, Matrix metalloproteinase 1 (MMP-1); assay: casein zymography of protein from fibroblast culture medium preincubated with compound; type: cell-based; details: read-out: % inhibition at 1000 μg/mL

Compound | inhibition at 1000 µg/mL [1] [%] | inhibition at 1000 µg/mL [2] [%]
O=C(O[C@@H]1Cc2c(O)cc(O)cc2O[C@@H]1c1cc(O)c(O)c(O)c1)c1cc(O)c(O)c(O)c1 [epigallocatechin gallate] | 75.6 | 
Oc1cc(O)c2c(c1)O[C@H](c1ccc(O)c(O)c1)[C@H](O)[C@H]2c1c(O)cc(O)c2c1O[C@H](c1ccc(O)c(O)c1)[C@H](O)C2 [proanthocyanidin B2] |  | 43.4
Oc1cc(O)c2c(c1)O[C@H](c1ccc(O)c(O)c1)[C@H](O)C2 [(-)-epicatechin] |  | 69.2
